Earlier results on 1 molecule are cited in patent publication US20070184105A1, “COMSPOSITION FOR STABLIZING EPIGALLOCATECHIN GALLATE (EGCG) IN WATER PHASE AND PREPARATION METHOD THEREOF” (DPI SOLUTIONS, INC., priority 2004, published 2007).

With `O=C(O[C@@H]1Cc2c(O)cc(O)cc2O[C@@H]1c1cc(O)c(O)c(O)c1)c1cc(O)c(O)c(O)c1` [EGCG, epigallocatechin gallate], the “amount of EGCG that can be dissolved in water phase” value is “about 4%”.
